Results from patent publication US4735959A, “Carboxylic acid amides and pharmaceutical compositions containing them” (Dr. Karl Thomae GmbH, priority 1981, dated 1988).
Where two headings read alike, the source gives them in different places.

Key:
Format in all cases: in vivo
[1] = test system: blood-sugar; assay: Blood-sugar lowering activity in starved female rats after oral administration; details: for change in vivo at 1 mg/kg / change in vivo at 5 mg/kg / change in vivo at 10 mg/kg: Rattus norvegicus, po, read-out: Blood-sugar lowering activity, percent as compared with the controls
Method: The blood-sugar lowering activity of the test compounds was determined in home-bred female rats with weights of from 180 to 220 grams. Twenty-four hours before starting the test the animals were starved. Before the test the compounds were suspended in 1.5% methyl cellulose and administered to the animals by means of an esophageal tube.
Blood was taken from the retroorbital plexus vein before administration of the test compounds as well as each of 1, 2, 3, and 4 hours after administration. Fifty microliters of each sample were deproteinized with 0.5 ml of 0.33N perchloric acid and centrifuged. The glucose content was determined in the supernatant according to the Hexokinase method by means of an analysis photometer. The statistical evalulation was performed with the t-test according to Student with p=0.05.

[2] = Acute toxicity in female and male mice after oral administration of a single dose; details: mouse, in vivo, observation time 14 days, read-out: Peroral Toxicity
Method: (§1) The acute toxicity was determined in home-bred female and male mice having body weights of from 20 to 26 gm after oral administration (suspension in a 1% methyl cellulose solution) of a single dose. Observation time: 14 days.

[3] = test system: mice; assay: as above; details: observation time 14 days
Method: as §1

[4] = 1 mg/kg orally, 1 hour, n.s. = not statistically significant
[5] = 1 mg/kg orally, 2 hours, n.s. = not statistically significant
[6] = 1 mg/kg orally, 3 hours, n.s. = not statistically significant
[7] = 1 mg/kg orally, 4 hours, n.s. = not statistically significant
[8] = 5 mg/kg orally, 1 hour, n.s. = not statistically significant
[9] = 5 mg/kg orally, 2 hours, n.s. = not statistically significant
[10] = 5 mg/kg orally, 3 hours, n.s. = not statistically significant
[11] = 5 mg/kg orally, 4 hours, n.s. = not statistically significant
[12] = 10 mg/kg orally (footnote *), 1 hour
[13] = 10 mg/kg orally (footnote *), 2 hours
[14] = 10 mg/kg orally (footnote *), 3 hours, n.s. = not statistically significant
[15] = 10 mg/kg orally (footnote *), 4 hours, n.s. = not statistically significant

Compound	change in vivo at 1 mg/kg [1, 4] [%]	change in vivo at 1 mg/kg [1, 5] [%]	change in vivo at 1 mg/kg [1, 6] [%]	change in vivo at 1 mg/kg [1, 7] [%]	LD50 at 336 h [2] [mg/kg]	animals died [3]	change in vivo at 5 mg/kg [1, 8] [%]	change in vivo at 5 mg/kg [1, 9] [%]	change in vivo at 5 mg/kg [1, 10] [%]	change in vivo at 5 mg/kg [1, 11] [%]	Blood-sugar lowering activity, percent as compared with the controls [1, 6]	Blood-sugar lowering activity, percent as compared with the controls [1, 7]	Blood-sugar lowering activity, percent as compared with the controls [1, 11]	change in vivo at 10 mg/kg [1, 12] [%]	change in vivo at 10 mg/kg [1, 13] [%]	change in vivo at 10 mg/kg [1, 14] [%]	change in vivo at 10 mg/kg [1, 15] [%]	Blood-sugar lowering activity, percent as compared with the controls [1, 14]	Blood-sugar lowering activity, percent as compared with the controls [1, 15]
CC(C)=C(NC(=O)Cc1ccc(C(=O)O)cc1)c1ccccc1N1CCCCC1 [D, 4-[(2-Methyl-1-(2-piperidino-phenyl)-1-propen-1-yl)-aminocarbonylmethyl]-benzoic acid]	-36	-32	-27	-25	> 500	0 out of 6													
Cc1cccc(C(C)NC(=O)Cc2ccc(C(=O)O)cc2)c1N1CCCCC1 (stereo not shown) [Z, 4-[(1-(3-Methyl-2-piperidino-phenyl)-1-ethyl)-aminocarbonylmethyl]-benzoic acid]							-22	-33	-28	-26									
CC(NC(=O)Cc1ccc(C(=O)O)cc1)c1cccc(Cl)c1N1CCCCC1 (stereo not shown) [Y, 4-[(1-(3-Chloro-2-piperidino-phenyl)-1-ethyl)-aminocarbonylmethyl]-benzoic acid]							-32	-24	-16	-18									
COCC(NC(=O)Cc1ccc(C(=O)O)cc1)c1ccccc1N1CCCCC1 (stereo not shown) [Compound P, 4-[(2-Methoxy-1-(2-piperidino-phenyl)-1-ethyl)-aminocarbonylmethyl]-benzoic acid]	-37	-19					-49	-43	-34	-22	n.s.	n.s.							
O=C(Cc1ccc(C(=O)O)cc1)NC(c1ccccc1)c1cccc(Cl)c1N1CCCCC1 (stereo not drawn) [AS, 4-[(3-Chloro-α-phenyl-2-piperidino-benzyl)-aminocarbonylmethyl]-benzoic acid]	-21	-13					-45	-44	-42	-32	n.s.	n.s.							
CCCC(NC(=O)Cc1ccc(C=CC(=O)O)cc1)c1ccccc1N1CCCCC1 (stereo not shown) [T, 4=[(1-(2-Piperidino-phenyl)-1-butyl)-aminocarbonylmethyl]-cinnamic acid]	-42	-42	-40	-32			-48	-46	-42	-40									
CCCC/C=C(\NC(=O)Cc1ccc(C(=O)OCC)cc1)c1ccccc1N1CCCCC1 [E, (Z)-4-[(1-(2-Piperidino-phenyl)-1-hexen-1-yl)-aminocarbonylmethyl]-benzoic acid ethyl ester]	-23	-23	-12	-18			-46	-40	-38	-26									
CCCC(NC(=O)Cc1ccc(C(=O)O)cc1)c1ccc(F)cc1N1CCCCC1 (stereo not shown) [V, 4-[(1-(4-Fluoro-2-piperidino-phenyl)-1-butyl)-aminocarbonylmethyl]-benzoic acid]	-37	-23	-30	-18			-45	-41	-46	-40									
CCCC(NC(=O)Cc1ccc(CC(=O)O)cc1)c1ccccc1N1CCCCC1 (stereo not shown) [S, 4-[(1-(2-Piperidino-phenyl)-1-butyl)-aminocarbonylmethyl]-phenyl-acetic acid]	-29	-20	-10				-49	-42	-30	-17		n.s.							
CCCC(NC(=O)Cc1ccc(CO)cc1)c1ccccc1N1CCCCC1 (stereo not shown) [R, 4-[(1-(2-Piperidino-phenyl)-1-butyl)-aminocarbonylmethyl]-benzyl alcohol]	-39	-34	-29	-24			-38	-40	-35	-29									
CCCC(NC(=O)Cc1ccc(C(=O)O)cc1)c1ccccc1N1CCCCCC1 (stereo not shown) [M, 4-[(1-(2-Hexahydroazepino-phenyl)-1-butyl)-aminocarbonylmethyl]-benzoic acid]	-33	-30	-21				-46	-43	-40	-36		n.s.							
O=C(Cc1ccc(C(=O)O)cc1)NC(c1ccncc1)c1ccccc1N1CCCCC1 (stereo not drawn) [AH, 4-[(2-Piperidino-α-(4-pyridyl)-benzyl)-aminocarbonylmethyl]-benzoic acid]	-26	-14					-41	-37	-20		n.s.	n.s.	n.s.						
Cc1ccc(C(NC(=O)Cc2ccc(C(=O)O)cc2)c2ccccc2)c(N2CCCCC2)c1 (stereo not drawn) [AO, 4-[(4-Methyl-α-phenyl-2-piperidino-benzyl)-aminocarbonylmethyl]-benzoic acid]		-17	-15	-11			-37	-34	-32	-31									
O=C(O)C=Cc1ccc(CC(=O)NC(c2ccccc2)c2ccccc2N2CCCCC2)cc1 (stereo not drawn) [AK, 4-[(α-Phenyl-2-piperidino-benzyl)-aminocarbonylmethyl]-cinnamic acid]	-32	-19	-10	-17										-48	-47	-40	-45		
O=C(Cc1ccc(C(=O)O)cc1)NC(CCc1ccccc1)c1ccccc1N1CCCCC1 (stereo not shown) [O, 4-[(3-Phenyl-1-(2-piperidino-phenyl)-1-propyl)-aminocarbonylmethyl]-benzoic acid]														-38	-31			n.s.	n.s.
O=C(Cc1ccc(C(=O)O)cc1)NC(c1ccccc1)c1ccc(Cl)cc1N1CCCCC1 (stereo not drawn) [AM, 4-[(4-Chloro-α-phenyl-2-piperidino-benzyl)-aminocarbonylmethyl]-benzoic acid]	-11	-13					-34	-35	-32	-29	n.s.	n.s.							
CC1CCCCN1c1ccccc1C(NC(=O)Cc1ccc(C(=O)O)cc1)c1ccccc1 (stereo not drawn) [AQ, 4-[(2-(2-Methyl-piperidino)-α-phenyl-benzyl)-aminocarbonylmethyl]-benzoic acid]	-16	-11					-32	-31	-24	-19	n.s.	n.s.							
